Earlier results in patent US20240050408A1, “USE OF MGLUR5 ANTAGONISTS FOR TREATING AMPHETAMINE ADDICTION” (NOVARTIS AG, priority 2020, published 2024).

How the values were obtained:
[1] = test system: methamphetamine conditioned place preference; conditions: rats; Herrold et al. 2013; cited from earlier work
[2] = test system: methamphetamine self-administration behavior; conditions: rat model; Gass et al. 2009; cited from earlier work

In the case of `Cc1cccc(C#Cc2ccccc2)n1` [MPEP, 2-Methyl-6-(phenylethynyl)-pyridine], the “maintenance of the expression of methamphetamine conditioned place preference” value [1] is given as “inhibited”.
In the case of `Cc1nc(C#Cc2cccnc2)cs1` [MTEP, 3-[(2-methyl-1,3-thiazol-4-yl)ethynyl]pyridine], the “cue- and drug-induced reinstatement of methamphetamine-seeking behavior” value [2] is listed as “dose dependently prevented”, the “cue-induced reinstatement of food-seeking behavior” value [2] is listed as “did not alter” and the methamphetamine self-administration behavior [2] is listed as “dose dependently reduced”. The “overall responding for food” value [2] was “without altering” and the “maintenance of the expression of methamphetamine conditioned place preference” value [1] was “inhibited”.
